Laboratory results: ChEMBL document CHEMBL4177571, “Synthesis and biological evaluation of a new series of cinnamic acid amide derivatives as potent haemostatic agents containing a 2-aminothiazole substructure” (Bioorg Med Chem Lett, 2017)

Experiments:
Plasma [1] = assay: Haemostatic activity in human plasma assessed as change in rate of activated partial thromboplastin time at 5 uM after 3 mins relative to control; type: functional
Plasma [2] = assay: Haemostatic activity in human plasma assessed as change in rate of activated partial thromboplastin time at 100 uM after 3 mins relative to control; type: functional
Plasma [3] = assay: Haemostatic activity in human plasma assessed as change in rate of thrombin time at 100 uM after 3 mins by thrombin agent based assay relative to control; type: functional
[4] = Thermal stability of the compound at 150 degC by thermogravimetric assay; type: physicochemical
Plasma [5] = assay: Haemostatic activity in human plasma assessed as change in rate of thrombin time at 10 uM after 3 mins by thrombin agent based assay relative to control; type: functional
Plasma [6] = assay: Haemostatic activity in human plasma assessed as change in rate of prothrombin time at 50 uM after 3 mins by thromboplastic agent based assay relative to control; type: functional
Plasma [7] = assay: Haemostatic activity in human plasma assessed as change in rate of activated partial thromboplastin time at 1 uM after 3 mins relative to control; type: functional
Plasma [8] = assay: Haemostatic activity in human plasma assessed as change in rate of thrombin time at 5 uM after 3 mins by thrombin agent based assay relative to control; type: functional
Plasma [9] = assay: Haemostatic activity in human plasma assessed as change in rate of prothrombin time at 1 uM after 3 mins by thromboplastic agent based assay relative to control; type: functional
Plasma [10] = assay: Haemostatic activity in human plasma assessed as change in rate of prothrombin time at 10 uM after 3 mins by thromboplastic agent based assay relative to control; type: functional
Plasma [11] = assay: Haemostatic activity in human plasma assessed as change in rate of activated partial thromboplastin time at 50 uM after 3 mins relative to control; type: functional
Plasma [12] = assay: Inhibition of ADP-induced platelet aggregation in human plasma; type: functional
Plasma [13] = assay: Haemostatic activity in human plasma assessed as change in rate of thrombin time at 1 uM after 3 mins by thrombin agent based assay relative to control; type: functional
Plasma [14] = assay: Haemostatic activity in human plasma assessed as change in rate of thrombin time at 50 uM after 3 mins by thrombin agent based assay relative to control; type: functional
Plasma [15] = assay: Haemostatic activity in human plasma assessed as change in rate of prothrombin time at 5 uM after 3 mins by thromboplastic agent based assay relative to control; type: functional
Plasma [16] = assay: Haemostatic activity in human plasma assessed as change in rate of activated partial thromboplastin time at 10 uM after 3 mins relative to control; type: functional
Plasma [17] = assay: Haemostatic activity in human plasma assessed as change in rate of prothrombin time at 100 uM after 3 mins by thromboplastic agent based assay relative to control; type: functional

For O=C(CCc1ccccc1)Nc1nccs1, the Activity (Plasma [1]) was -2.42%, the Activity (Plasma [2]) was 0.28% and the Activity (Plasma [3]) was -7.93%. For the same molecule, the Stability [4] was “Stable”, the Activity (Plasma [5]) was -5.33% and the Activity (Plasma [6]) was -2.81%. The Activity (Plasma [7]) was 1%, the Activity (Plasma [8]) was -4.6% and the Activity (Plasma [9]) was -0.56%. The Activity (Plasma [10]) was -3.19%, the Activity (Plasma [11]) was -1.56% and the IC50 (Plasma [12]) was 45.1 µM. For the same molecule, the Activity (Plasma [13]) was -3.15%, the Activity (Plasma [14]) was -7.02% and the Activity (Plasma [15]) was -2.44%. The Activity (Plasma [16]) was -1.85% and the Activity (Plasma [17]) was 0%.

COc1ccc(/C=C/C(=O)Nc2nccs2)cc1OC showed an Activity (Plasma [1]) of -6.47%, an Activity (Plasma [2]) of 1.97% and an Activity (Plasma [3]) of -14.62%. The Stability [4] was “Stable”, the Activity (Plasma [5]) was -22.41% and the Activity (Plasma [6]) was -1.49%. For the same molecule, the Activity (Plasma [7]) was -0.14%, the Activity (Plasma [8]) was -16.04% and the Activity (Plasma [9]) was -1.7%. It also gave an Activity (Plasma [10]) of -0.22%, an Activity (Plasma [11]) of -0.56% and an IC50 (Plasma [12]) of 54.5 µM. For the same molecule, the Activity (Plasma [13]) was -14.62%, the Activity (Plasma [14]) was -23.82% and the Activity (Plasma [15]) was 0.28%. It also gave an Activity (Plasma [16]) of -1.41% and an Activity (Plasma [17]) of -2.99%.

With COc1cc(/C=C/C(=O)Nc2nccs2)cc(OC)c1OC the Activity (Plasma [1]) was 1.55%, the Activity (Plasma [2]) was 1.69% and the Activity (Plasma [3]) was -50.24%. For the same molecule, the Stability [4] was “Stable”, the Activity (Plasma [5]) was -10.14% and the Activity (Plasma [6]) was 0.55%. It also gave an Activity (Plasma [7]) of 0.56%, an Activity (Plasma [8]) of -22.17% and an Activity (Plasma [9]) of 0.56%. For the same molecule, the Activity (Plasma [10]) was 3.22%, the Activity (Plasma [11]) was 1.96% and the IC50 (Plasma [12]) was 18.1 µM. The Activity (Plasma [13]) was -29.01%, the Activity (Plasma [14]) was -21.7% and the Activity (Plasma [15]) was -0.95%. It also gave an Activity (Plasma [16]) of 2.25% and an Activity (Plasma [17]) of 2.55%.

For COc1ccc(/C=C/C(=O)Nc2nccs2)cc1, the Activity (Plasma [1]) was -2.7%, the Activity (Plasma [2]) was -0.71% and the Activity (Plasma [3]) was -16.95%. For the same molecule, the Stability [4] was “Stable”, the Activity (Plasma [5]) was -8.23% and the Activity (Plasma [6]) was -0.75%. It also gave an Activity (Plasma [7]) of -1.28%, an Activity (Plasma [8]) of -7.51% and an Activity (Plasma [9]) of -1.51%. It also gave an Activity (Plasma [10]) of 0%, an Activity (Plasma [11]) of 0.28% and an IC50 (Plasma [12]) of 73.7 µM. For the same molecule, the Activity (Plasma [13]) was -6.54%, the Activity (Plasma [14]) was -13.8% and the Activity (Plasma [15]) was -2.27%. For the same molecule, the Activity (Plasma [16]) was 0.14% and the Activity (Plasma [17]) was -6.75%.

For CC(=O)Oc1ccc(/C=C/C(=O)Nc2nccs2)cc1, the Activity (Plasma [1]) was -3.1%, the Activity (Plasma [2]) was -2.45% and the Activity (Plasma [3]) was -6.39%. The Stability [4] was “Stable”, the Activity (Plasma [5]) was -22.03% and the Activity (Plasma [6]) was -4.3%. For the same molecule, the Activity (Plasma [7]) was -1.68%, the Activity (Plasma [8]) was -14.54% and the Activity (Plasma [9]) was -3.2%. It also gave an Activity (Plasma [10]) of -5.29%, an Activity (Plasma [11]) of -2.71% and an IC50 (Plasma [12]) of 58.1 µM. The Activity (Plasma [13]) was -11.45%, the Activity (Plasma [14]) was -21.15% and the Activity (Plasma [15]) was -4.4%. For the same molecule, the Activity (Plasma [16]) was -3.88% and the Activity (Plasma [17]) was 1.2%.

For COc1cc(/C=C/C(=O)Nc2nccs2)ccc1OC(C)=O, the Activity (Plasma [1]) was -2.57%, the Activity (Plasma [2]) was -1.85% and the Activity (Plasma [3]) was -11.06%. For the same molecule, the Stability [4] was “Stable”, the Activity (Plasma [5]) was -13.06% and the Activity (Plasma [6]) was -5.77%. The Activity (Plasma [7]) was -1.14%, the Activity (Plasma [8]) was -7.88% and the Activity (Plasma [9]) was -1.98%. For the same molecule, the Activity (Plasma [10]) was -4.39%, the Activity (Plasma [11]) was -6.28% and the IC50 (Plasma [12]) was 25.5 µM. It also gave an Activity (Plasma [13]) of -5.76%, an Activity (Plasma [14]) of -12.35% and an Activity (Plasma [15]) of -2.24%. The Activity (Plasma [16]) was -3.42% and the Activity (Plasma [17]) was -7.32%.

Work on O=C(/C=C/c1ccccc1)Nc1nccs1 yielded an Activity (Plasma [1]) of -5.81%, an Activity (Plasma [2]) of -2.71% and an Activity (Plasma [3]) of -9.69%. The Stability [4] was “Stable”, the Activity (Plasma [5]) was -11.23% and the Activity (Plasma [6]) was -4.4%. The Activity (Plasma [7]) was -4.78%, the Activity (Plasma [8]) was -10.79% and the Activity (Plasma [9]) was -5.69%. For the same molecule, the Activity (Plasma [10]) was -5.59%, the Activity (Plasma [11]) was -6.72% and the IC50 (Plasma [12]) was 36.6 µM. The Activity (Plasma [13]) was -7.93%, the Activity (Plasma [14]) was -13.66% and the Activity (Plasma [15]) was -7.09%. For the same molecule, the Activity (Plasma [16]) was -9.95% and the Activity (Plasma [17]) was -3.7%.

For CC(=O)Oc1ccccc1/C=C/C(=O)Nc1nccs1, the Activity (Plasma [1]) was -9.51%, the Activity (Plasma [2]) was -6.12% and the Activity (Plasma [3]) was -21.88%. The Stability [4] was “Stable”, the Activity (Plasma [5]) was -21.39% and the Activity (Plasma [6]) was -2.2%. For the same molecule, the Activity (Plasma [7]) was -5.55%, the Activity (Plasma [8]) was -13.46% and the Activity (Plasma [9]) was -1.68%. For the same molecule, the Activity (Plasma [10]) was -4.62%, the Activity (Plasma [11]) was -8.15% and the IC50 (Plasma [12]) was 1.87 µM. The Activity (Plasma [13]) was -2.4%, the Activity (Plasma [14]) was -26.2% and the Activity (Plasma [15]) was -3.25%. For the same molecule, the Activity (Plasma [16]) was -8.61% and the Activity (Plasma [17]) was -1.78%.

CC(=O)Oc1cccc(/C=C/C(=O)Nc2nccs2)c1 showed an Activity (Plasma [1]) of -6.57%, an Activity (Plasma [2]) of -8.61% and an Activity (Plasma [3]) of -21.64%. For the same molecule, the Stability [4] was “Stable”, the Activity (Plasma [5]) was -15.39% and the Activity (Plasma [6]) was -0.42%. The Activity (Plasma [7]) was -4.64%, the Activity (Plasma [8]) was -7.21% and the Activity (Plasma [9]) was -0.1%. For the same molecule, the Activity (Plasma [10]) was -0.73%, the Activity (Plasma [11]) was -9.06% and the IC50 (Plasma [12]) was 35.5 µM. The Activity (Plasma [13]) was -5.05%, the Activity (Plasma [14]) was -19.95% and the Activity (Plasma [15]) was -1.05%. For the same molecule, the Activity (Plasma [16]) was -10.19% and the Activity (Plasma [17]) was -0.84%.

Molecule CC(=O)Oc1ccc(/C=C/C(=O)Nc2nccs2)cc1OC(C)=O has an Activity (Plasma [1]) of -6%, an Activity (Plasma [2]) of 0% and an Activity (Plasma [3]) of -15.63%. The Stability [4] was “Stable”, the Activity (Plasma [5]) was -28.13% and the Activity (Plasma [6]) was -1.68%. It also gave an Activity (Plasma [7]) of -2.94%, an Activity (Plasma [8]) of -30.77% and an Activity (Plasma [9]) of -4.3%. For the same molecule, the Activity (Plasma [10]) was -1.36%, the Activity (Plasma [11]) was -2.04% and the IC50 (Plasma [12]) was 75.6 µM. It also gave an Activity (Plasma [13]) of -13.94%, an Activity (Plasma [14]) of -27.89% and an Activity (Plasma [15]) of -4.09%. The Activity (Plasma [16]) was -2.94% and the Activity (Plasma [17]) was -3.88%.

Nc1nccs1 [AMINOTHIAZOLE] gave an Activity (Plasma [1]) of -2%, an Activity (Plasma [2]) of 2.53% and an Activity (Plasma [3]) of -3.53%. The Activity (Plasma [5]) was -6.47%, the Activity (Plasma [6]) was -5.17% and the Activity (Plasma [7]) was -3.71%. It also gave an Activity (Plasma [8]) of -5.06%, an Activity (Plasma [9]) of -6.63% and an Activity (Plasma [10]) of -2.84%. For the same molecule, the Activity (Plasma [11]) was 0%, the IC50 (Plasma [12]) was 202 µM and the Activity (Plasma [13]) was -3.53%. For the same molecule, the Activity (Plasma [14]) was -5.41%, the Activity (Plasma [15]) was -4.91% and the Activity (Plasma [16]) was -0.43%. For the same molecule, the Activity (Plasma [17]) was -5.43%.

In the case of O=S(=O)(O)c1cc(O)ccc1O [ETHAMSYLATE], the IC50 (Plasma [12]) is reported as 46.2 µM.
